5 compounds from ChEMBL document CHEMBL5532706, “Passifetilactones A-E, Fatty Acid Lactones from the Fruit and Flowers of Passiflora foetida with Cytotoxic Activity” (J Nat Prod, 2024) can be followed below.

pIC50: −log10 of the molar value. Active and inactive are the calls of the source. The calls are words filed in the database; no cut-off is given here.

In data set [1] the test system is HeLa. Nature of the data set: Cytotoxicity against human HeLa cells assessed as inhibition of cell growth incubated for 72 hrs by MTT assay. It counts as functional, cell-based.
Data set [2] concerns A549. Briefly: Cytotoxicity against human A549 cells assessed as inhibition of cell growth incubated for 72 hrs by MTT assay. It is filed as functional, cell-based. The settings on record: A549, 72 h.
Data set [3] has as its system PC-3. Briefly: Cytotoxicity against human PC-3 cells assessed as inhibition of cell growth incubated for 72 hrs by MTT assay. The settings on record: PC-3, 72 h. It counts as functional, cell-based. (In general: Formazan colour is commonly taken as a measure of viable cells.)
The nature of data set [4]: Cytotoxicity against African green monkey Vero cells assessed as inhibition of cell growth incubated for 72 hrs by MTT assay. It counts as toxicity, cell-based. The settings on record: African green monkey (Chlorocebus sabaeus).
Data set [5] is described as follows: Cytotoxicity against human MMNK-1 cells assessed as inhibition of cell growth incubated for 48 hrs by MTT assay. It is filed as toxicity, cell-based. The settings on record: for IC50 at 48 h: MMNK-1 cells.
In data set [6] the test system is KKU-M055. Briefly: Cytotoxicity against human KKUM055 cells assessed as inhibition of cell growth incubated for 48 hrs by MTT assay. The settings on record: for pIC50: KKU-M055, 48 h. It counts as functional, cell-based.
The subject of data set [7] is KKUM213. Nature of the data set: Cytotoxicity against human KKUM213 cells assessed as inhibition of cell growth incubated for 48 hrs by MTT assay. It is filed as functional, cell-based. The settings on record: KKU-213A.
For data set [8], the system named is KKU-M055. Nature of the data set: Induction of apoptosis in human KKUM055 cells assessed as total apoptotic cells at 2 ug/ml incubated for 48 hrs by Annexin V-FITC/PI staining based flow cytometry analysis (reference value: 22.11%). It is filed as functional. The settings on record: dose 2 µg/ml. For orientation: A flow cytometer gives signals particle by particle.

Data set [9] deals with KKU-M055. Briefly: Induction of apoptosis in human KKUM055 cells assessed as total apoptotic cells at 7 ug/ml incubated for 48 hrs by Annexin V-FITC/PI staining based flow cytometry analysis (reference value: 22.11%). It counts as functional. The settings on record: dose 7 µg/ml.
In data set [10] the test system is KKUM213. Nature of the data set: Induction of apoptosis in human KKUM213 cells assessed as total apoptotic cells at 2 ug/ml incubated for 48 hrs by Annexin V-FITC/PI staining based flow cytometry analysis (reference value: 17.61%). The settings on record: dose 2 µg/ml. It counts as functional, KKU-213A.
Data set [11] relates to KKUM213. Nature of the data set: Induction of apoptosis in human KKUM213 cells assessed as total apoptotic cells at 7 ug/ml incubated for 48 hrs by Annexin V-FITC/PI staining based flow cytometry analysis (reference value: 17.61%). The settings on record: dose 7 µg/ml. It is filed as functional, KKU-213A.
The subject of data set [12] is KKU-M055. Briefly: Induction of apoptosis in human KKUM055 cells assessed as total apoptotic cells at 2 ug/ml incubated for 48 hrs by Annexin V-FITC/PI staining based flow cytometry analysis (reference value: 16.44%). It is filed as functional. The settings on record: dose 2 µg/ml.
The subject of data set [13] is KKU-M055. Nature of the data set: Induction of apoptosis in human KKUM055 cells assessed as total apoptotic cells at 7 ug/ml incubated for 48 hrs by Annexin V-FITC/PI staining based flow cytometry analysis (reference value: 16.44%). It counts as functional. The settings on record: dose 7 µg/ml.
For data set [14], the system named is KKUM213. Briefly: Induction of apoptosis in human KKUM213 cells assessed as total apoptotic cells at 2 ug/ml incubated for 48 hrs by Annexin V-FITC/PI staining based flow cytometry analysis (reference value: 18.14%). It is filed as functional, KKU-213A. The settings on record: dose 2 µg/ml.
Data set [15] has as its system KKUM213. Nature of the data set: Induction of apoptosis in human KKUM213 cells assessed as total apoptotic cells at 7 ug/ml incubated for 48 hrs by Annexin V-FITC/PI staining based flow cytometry analysis (reference value: 18.14%). It is filed as functional, KKU-213A. The settings on record: dose 7 µg/ml.

Take `CCCCCCCCCCCCCCC[C@H]1CC=CC(=O)O1`: the pIC50 in data set [1] is 4.91; in data set [2] it was 4.91; in data set [3], 4.91; in data set [6] it was 4.70; in [7], 4.74. Also, in data set [4], the IC50 at 72 h was 12.2 µM. For the same compound, the IC50 at 48 h in data set [5] came out at 39.3 µM. In addition, the Activity is on record as 21.29% in [8], 43.4% in [9], 20.64% in [10] and 19.95% in [11].

For the compound `CCCCCCCCCCCCCCC[C@@H]1OC(=O)C=C[C@@H]1O`, the pIC50 in data set [1] is 5.43; in data set [2], 5.43; in [3], 5.43; in data set [6] it was 4.59; in [7], 4.77. Moreover, the IC50 at 72 h in data set [4] was found to be 3.7 µM. The IC50 at 48 h in data set [5] worked out at 57.4 µM. For the same compound, the Activity came to 59% in [12], 86% in data set [13], 28.97% in data set [14] and 69.22% in data set [15].

Consider `CCCCCC/C=C\CCCCCCC[C@H]1CC=CC(=O)O1`, for which the pIC50 is 4.95 in [1]; 4.77 in [2]; 4.63 in data set [3]; 4.51 in [6]; 4.65 in data set [7]. Besides, in data set [4], the IC50 at 72 h was 21.2 µM. Besides, the IC50 at 48 h in data set [5] stood at 52.9 µM.

In the case of `CCCCCCCCCCCCCCC[C@@H](O)[C@@H]1C=CC(=O)O1`, the Activity result in data set [5] (mmnk-1, 48 h, time 48 hrs) was “Non-Toxic”. Further, the pIC50 in [6] is 4.58; in data set [7], 4.29.

As to `CCCCCCCCCCCCCCC[C@@H]1C[C@@H]2C[C@@H](CC(=O)O2)O1`, the pIC50 in data set [1], in [2] and in [3] was 4.41 each time. Moreover, the IC50 at 72 h in [4] worked out at 39.1 µM. In addition, the outcome in [6] and in data set [7] was inactive.

For orientation: pIC50 means −log10 of the IC50, conventionally taken in molar units. Usually IC50 stands for the midpoint of a concentration-inhibition curve.
